Experimental data taken from patent US10947188B2, “Small molecule ferroptosis inducers” (THE TRUSTEES OF COLUMBIA UNIVERSITY IN THE CITY OF NEW YORK, priority 2016, dated 2021).
Values after ≈ are worked out from the molar mass of the structure shown.

Experiments:
HT-1080 cells = assay: Lethality of commercially available CIL41/70 structural analogs; type: cell-based; conditions: Homo sapiens, tested once in technical triplicates
Method: 1,000 cells per 36 μl were seeded in each well in 384-well plates. Lethal compounds were dissolved, and a twofold, 12-point dilution series was prepared in DMSO. Compound solutions were further diluted with media at 1:25, and 4 μl per well of the diluted solutions was added to cell cultures immediately after cells were seeded. […] When other cell-death-modulating compounds (100 nM sodium selenite, 1 μM cerivastatin, 100 μg/mL mevalonic acid) were used in cotreatments, they were supplemented to cell culture for 24 h before lethal compounds were added to cell culture, after which cells were further incubated for 24 h at 37° C. under 5% CO2. On the day of the viability measurement, we added 10 μl per well of 50% Alamar Blue diluted in media (Life Technologies) and further incubated the cells at 37° C. for 6 h. Fluorescence intensity (excitation/emission: 530/590) was measured with a Victor 3 plate reader (PerkinElmer), and the normalized viability was calculated as VL=(IL−I0)/(IV−I0), where VL, I0, IV, and IL are the normalized viability and the raw fluorescence intensities from the wells containing media, cells treated with a vehicle (negative control), and cells with the lethal compound (L), respectively. When the effect of a chemical modulator (M) on L was calculated, we instead used the equation VL|M=(IM,L−I0)/(IM,V−I0), where VL|M, IM,L and IM,V are the normalized viability, and fluorescence intensity from cells treated with […], respectively. The viability was typically measured in biological triplicate unless otherwise specified. A representative dose-response curve, the mean and standard error of normalized viability from one replicate were plotted. HT-1080 viability after modulator treatments corresponding to FIG. 3C and FIGS. 5E-5F is available in FIGS. 19A-19C.
Their lethality was tested once in HT-1080 cells in technical triplicates.

BJeLR = assay: Modulatory profiling: Alamar Blue viability, lethal compound cotreated with death modulator (EC50, AUC); type: cell-based, human; design: AUC, modulator BJ.Gd3+ / AUC, modulator BJ.LNAME / AUC, modulator BJ.Lmin / AUC, modulator BJ.3MA / AUC, modulator BJ.ALLN / AUC, modulator BJ.Boc D / AUC, modulator BJ.CHX / AUC, modulator BJ.Co2+ / AUC, modulator BJ.Nec-1 / AUC, modulator BJ.Pepstatin / AUC, modulator BJ.TLCK / AUC, modulator BJ.atoc / AUC, modulator BJ.trolox / AUC, modulator BJ.zVAD: unit not given beside the values; conditions: BJeLR cells, modulatory profile value (AUC); for AUC, modulator BJ.3MA: lethal compound cotreated with modulator 3MA; for AUC, modulator BJ.ALLN: lethal compound cotreated with modulator ALLN; for AUC, modulator BJ.Boc D: lethal compound cotreated with modulator Boc D; for AUC, modulator BJ.CHX: lethal compound cotreated with modulator CHX; for AUC, modulator BJ.Co2+: lethal compound cotreated with modulator Co2+; for AUC, modulator BJ.DPQ: lethal compound cotreated with modulator DPQ; for AUC, modulator BJ.Gd3+: lethal compound cotreated with modulator Gd3+; for AUC, modulator BJ.LNAME: lethal compound cotreated with modulator LNAME; for AUC, modulator BJ.Lmin/NAD+: lethal compound cotreated with modulator Lmin/NAD+; for AUC, modulator BJ.Lmin: lethal compound cotreated with modulator Lmin; for AUC, modulator BJ.NAD+: lethal compound cotreated with modulator NAD+; for AUC, modulator BJ.NMMA: lethal compound cotreated with modulator NMMA; for AUC, modulator BJ.Nec-1: lethal compound cotreated with modulator Nec-1; for AUC, modulator BJ.Pepstatin: lethal compound cotreated with modulator Pepstatin; for AUC, modulator BJ.TLCK: lethal compound cotreated with modulator TLCK; for AUC, modulator BJ.atoc: lethal compound cotreated with modulator atoc; for AUC, modulator BJ.trolox: lethal compound cotreated with modulator trolox; for AUC, modulator BJ.zVAD: lethal compound cotreated with modulator zVAD
HT-1080 = assay: as above; type: cell-based; design: AUC, modulator HT.3MA / AUC, modulator HT.ALLN / AUC HT.ATA / AUC HT.ActD / AUC HT.BHA / AUC HT.BHT / AUC HT.BocD / AUC HT.CHX / AUC HT.Co2+ / AUC HT.DPQ / AUC HT.EGTA / AUC HT.Lmim / AUC HT.NAD+ / AUC HT.Nec-1 / AUC HT.SP600125 / AUC HT.TLCK / AUC HT.U0126: unit not given beside the values; conditions: for AUC HT.ATA: HT-1080, modulator ATA; for AUC HT.ActD: HT-1080, modulator ActD; for AUC HT.BHA: HT-1080, modulator BHA; for AUC HT.BHT: HT-1080, modulator BHT; for AUC HT.BocD: HT-1080, modulator BocD; for AUC HT.CHX: HT-1080, modulator CHX; for AUC HT.Co2+: HT-1080, modulator Co2+; for AUC HT.CspA: HT-1080, modulator CspA; for AUC HT.DPQ: HT-1080, modulator DPQ; for AUC HT.EGTA: HT-1080, modulator EGTA; for AUC HT.Gd3+: HT-1080, modulator Gd3+; for AUC HT.LNAME: HT-1080, modulator LNAME; for AUC HT.Lmim: HT-1080, modulator Lmim; for AUC HT.NAD+: HT-1080, modulator NAD+; for AUC HT.NMMA: HT-1080, modulator NMMA; for AUC HT.Nec-1: HT-1080, modulator Nec-1; for AUC HT.Pepstatin: HT-1080, modulator Pepstatin; for AUC HT.SP600125: HT-1080, modulator SP600125; for AUC HT.TLCK: HT-1080, modulator TLCK; for AUC HT.U0126: HT-1080, modulator U0126; for HT.atoc (AUC) / HT.bCarotene (AUC) / HT.deferox (AUC) / HT.digoxin (AUC) / HT.trolox (AUC) / HT.zVAD (AUC): HT-1080; for HT.atoc (AUC): modulator atoc; for HT.bCarotene (AUC): modulator bCarotene; for HT.deferox (AUC): modulator deferox; for HT.digoxin (AUC): modulator digoxin; for HT.trolox (AUC): modulator trolox; for HT.zVAD (AUC): modulator zVAD; for AUC, modulator HT.3MA / AUC, modulator HT.ALLN: HT-1080 cells, modulatory profile value (AUC); for AUC, modulator HT.3MA: lethal compound cotreated with modulator 3MA; for AUC, modulator HT.ALLN: lethal compound cotreated with modulator ALLN

SMILES: COc1ccc(C/C(N)=N/OC(=O)COc2cccc3ccccc23)cc1 [CB10]
- EC50 (HT-1080 cells): > 20 µg/mL

SMILES: COc1ccc(C/C(N)=N/OC(=O)Cc2ccc(Cl)cc2)cc1 [CB11]
- EC50 (HT-1080 cells): > 20 µg/mL

SMILES: COc1ccccc1C/C(N)=N/OC(=O)Cc1ccc(Cl)cc1 [CB12]
- EC50 (HT-1080 cells): > 20 µg/mL

SMILES: COc1ccccc1C/C(N)=N/OC(=O)COc1cccc2ccccc12 [CB13]
- EC50 (HT-1080 cells): > 20 µg/mL

SMILES: CC(C)(C)C(=O)O/N=C(\N)Cc1ccc([N+](=O)[O-])cc1 [CB14]
- EC50 (HT-1080 cells): 14 µg/mL (≈ 50.1 µM)

SMILES: COc1ccccc1C/C(N)=N/OC(=O)COc1ccc(C)cc1C [CB15]
- EC50 (HT-1080 cells): > 20 µg/mL

SMILES: Cc1ccc(OCC(=O)O/N=C(\N)Cc2ccc([N+](=O)[O-])cc2)c(C)c1 [CB16]
- EC50 (HT-1080 cells): > 20 µg/mL

SMILES: N/C(Cc1ccc(Cl)cc1)=N\OC(=O)Cc1ccc([N+](=O)[O-])cc1 [CB17]
- EC50 (HT-1080 cells): > 20 µg/mL

SMILES: N[C@H](Cc1ccc(Cl)cc1)NOC(=O)/C=C/c1ccccc1 [CB18]
- EC50 (HT-1080 cells): 10.2 µg/mL (≈ 32.2 µM)

SMILES: CC(=O)O/N=C(N)/C(=N/OC(C)=O)c1nc2ccccc2[nH]1 [CB19]
- EC50 (HT-1080 cells): > 20 µg/mL

SMILES: CC(=O)NC(=N/OC(C)=O)/C(=N/OC(C)=O)c1nc2ccccc2[nH]1 [CB20]
- EC50 (HT-1080 cells): > 20 µg/mL

SMILES: Cc1ccccc1OCC(=O)O/N=C(\N)Cc1cccs1 [CB21]
- EC50 (HT-1080 cells): > 20 µg/mL

SMILES: COC(=O)c1ccc([C@@H]2c3[nH]c4ccccc4c3C[C@@H](C(=O)OC)N2C(=O)CCl)cc1 [RSL3, reference compound]
- AUC, modulator BJ.3MA (BJeLR): 0.09104
- AUC, modulator BJ.ALLN (BJeLR): 0.01266
- AUC, modulator BJ.Boc D (BJeLR): 0.03832
- AUC, modulator BJ.CHX (BJeLR): 0.1841
- AUC, modulator BJ.Co2+ (BJeLR): 0.1091
- AUC, modulator BJ.DPQ (BJeLR): 0.03115
- AUC, modulator BJ.Gd3+ (BJeLR): 0.02448
- AUC, modulator BJ.LNAME (BJeLR): 0.02932
- AUC, modulator BJ.Lmin/NAD+ (BJeLR): 0.3858
- AUC, modulator BJ.Lmin (BJeLR): 0.3462
- AUC, modulator BJ.NAD+ (BJeLR): 0.04136
- AUC, modulator BJ.NMMA (BJeLR): 0.007806
- AUC, modulator BJ.Nec-1 (BJeLR): 0.2379
- AUC, modulator BJ.Pepstatin (BJeLR): −0.0008093
- AUC, modulator BJ.TLCK (BJeLR): 0.2732
- AUC, modulator BJ.atoc (BJeLR): 0.3601
- AUC, modulator BJ.trolox (BJeLR): 0.3731
- AUC, modulator BJ.zVAD (BJeLR): 0.00586
- AUC HT.ATA (HT-1080): −0.04539
- AUC HT.ActD (HT-1080): −0.08579
- AUC HT.BHA (HT-1080): 0.3798
- AUC HT.BHT (HT-1080): 0.2444
- AUC HT.BocD (HT-1080): −0.01184
- AUC HT.CHX (HT-1080): −0.05099
- AUC HT.Co2+ (HT-1080): −0.1948
- AUC HT.CspA (HT-1080): −0.1268
- AUC HT.DPQ (HT-1080): 0.1653
- AUC HT.EGTA (HT-1080): 0.03696
- AUC HT.Gd3+ (HT-1080): −0.01265
- AUC HT.LNAME (HT-1080): −0.01081
- AUC HT.Lmim (HT-1080): 0.3302
- AUC HT.NAD+ (HT-1080): 0.007883
- AUC HT.NMMA (HT-1080): −0.00551
- AUC HT.Nec-1 (HT-1080): 0.07095
- AUC HT.Pepstatin (HT-1080): −0.01327
- AUC HT.SP600125 (HT-1080): −0.1319
- AUC HT.TLCK (HT-1080): 0.3152
- AUC HT.U0126 (HT-1080): 0.3972
- HT.atoc (AUC) (HT-1080): 0.4471
- HT.bCarotene (AUC) (HT-1080): −0.01346
- HT.deferox (AUC) (HT-1080): 0.3508
- HT.digoxin (AUC) (HT-1080): −0.1463
- HT.trolox (AUC) (HT-1080): 0.4213
- HT.zVAD (AUC) (HT-1080): −0.01599
- AUC, modulator HT.3MA (HT-1080): −0.07471
- AUC, modulator HT.ALLN (HT-1080): −0.03802

SMILES: O=C(CCCCCN1C(=O)c2cccc3cccc(c23)C1=O)NO [Scriptaid]
- AUC, modulator BJ.3MA (BJeLR): −0.0206
- AUC, modulator BJ.ALLN (BJeLR): −0.07856
- AUC, modulator BJ.Boc D (BJeLR): 0.03167
- AUC, modulator BJ.CHX (BJeLR): 0.2681
- AUC, modulator BJ.Co2+ (BJeLR): 0.2406
- AUC, modulator BJ.DPQ (BJeLR): 0.004892
- AUC, modulator BJ.Gd3+ (BJeLR): 0.0289
- AUC, modulator BJ.LNAME (BJeLR): 0.03611
- AUC, modulator BJ.Lmin/NAD+ (BJeLR): 0.2114
- AUC, modulator BJ.Lmin (BJeLR): 0.1113
- AUC, modulator BJ.NAD+ (BJeLR): 0.1384
- AUC, modulator BJ.NMMA (BJeLR): 0.02102
- AUC, modulator BJ.Nec-1 (BJeLR): 0.02804
- AUC, modulator BJ.Pepstatin (BJeLR): −0.0282
- AUC, modulator BJ.TLCK (BJeLR): 0.07545
- AUC, modulator BJ.atoc (BJeLR): −0.005396
- AUC, modulator BJ.trolox (BJeLR): −0.0185
- AUC, modulator BJ.zVAD (BJeLR): 0.1205
- AUC HT.ATA (HT-1080): −0.03873
- AUC HT.ActD (HT-1080): −0.1632
- AUC HT.BHA (HT-1080): −0.05883
- AUC HT.BHT (HT-1080): −0.103
- AUC HT.BocD (HT-1080): 0.02828
- AUC HT.CHX (HT-1080): −0.1048
- AUC HT.Co2+ (HT-1080): −0.1939
- AUC HT.CspA (HT-1080): −0.1413
- AUC HT.DPQ (HT-1080): −0.00813
- AUC HT.EGTA (HT-1080): −0.01767
- AUC HT.Gd3+ (HT-1080): −0.02176
- AUC HT.LNAME (HT-1080): −0.002637
- AUC HT.Lmim (HT-1080): −0.05583
- AUC HT.NAD+ (HT-1080): 0.01064
- AUC HT.NMMA (HT-1080): 0.008869
- AUC HT.Nec-1 (HT-1080): −0.05617
- AUC HT.Pepstatin (HT-1080): −0.01296
- AUC HT.SP600125 (HT-1080): −0.07
- AUC HT.TLCK (HT-1080): −0.05575
- AUC HT.U0126 (HT-1080): −0.04228
- HT.atoc (AUC) (HT-1080): −0.009331
- HT.bCarotene (AUC) (HT-1080): −0.01872
- HT.deferox (AUC) (HT-1080): −0.1469
- HT.digoxin (AUC) (HT-1080): −0.08793
- HT.trolox (AUC) (HT-1080): −0.02986
- HT.zVAD (AUC) (HT-1080): 0.02988
- AUC, modulator HT.3MA (HT-1080): −0.1244
- AUC, modulator HT.ALLN (HT-1080): −0.1403
